Patent US7049313B2, “ATM inhibitors” (Kudos Pharmaceuticals Ltd., priority 2002, dated 2006)
pIC50: −log10 of the molar value. Structures can show the parent of a compound that is named as a salt.

Molecular target: T1, ATM (Homo sapiens, UniProt Q13315)
T1 construct: ATM protein was immunoprecipitated from HeLa cell nuclear extract; endogenous in cells; host or cells: HeLa cell nuclear extract (immunoprecipitate)
Test: In vitro ATM inhibition assay (phosphorylation of GSTp53N66 on serine 15)
Type: biochemical
Procedure: In vitro ATM inhibition Assays
In order to assess the inhibitory action of the compounds against ATM in vitro, the following assay was used to determine IC50 values.
ATM protein was immunoprecipitated from HeLa cell nuclear extract using rabbit polyclonal anti-sera raised to the C-terminal ˜500 amino-acid residues of the human ATM protein. The immunoprecipitation was performed according to the methodology described by Banin, S. et al. (1998). 10 μl of immunoprecipitated ATM in Buffer C (50 mM Hepes, pH 7.4, 6 mM MgCl2, 150 mM NaCl, 0.1 mM sodium orthovanadate, 4 mM MnCl2, 0.1 mM dithiothreitol, 10% glycerol) was added to 32.5 μl of buffer C containing 1 μg of the ATM substrate GSTp53N66 in a V-bottomed 96 well polypropylene plate. The GSTp53N66 substrate is the amino terminal 66 amino acid residues of human wild type p53 fused to glutathione S-transferase. ATM phosphorylates p53 on the residue serine 15 (Banin, S. et al. (1998)). Varying concentrations of inhibitor were then added. […] After 10 minutes of incubation at 37° C., the reactions were initiated by the addition of 5 μl of 500 μM Na-ATP. After 1 hour with shaking at 37° C., 150 μl of phosphate buffered saline (PBS) was added to the reaction and the plate centrifuged at 1500 rpm for 10 minutes. 5 μl of the reaction was then transferred to a 96 well opaque white plate containing 45 μl of PBS to allow the GSTp53N66 substrate to bind to the plate wells. The plate was covered and incubated at room temperature for 1 hour with shaking before discarding the contents. The plate wells were washed twice by the addition of PBS prior to the addition of 3% (w/v) bovine serum albumin (BSA) in PBS. The plate was incubated at room temperature for 1 hour with shaking before discarding the contents and washing twice with PBS. To the wells, 50 μl of a 1:10,000 dilution of primary phosphoserine-15 antibody (Cell Signaling Technology, #9284L) in 3% BSA/PBS was added to detect the phosphorylation event on the serine 15 residue of p53 elicited by the ATM kinase. After 1 hour of incubation at room temperature with shaking, the wells were washed four times with PBS prior to the addition of an anti-rabbit HRP conjugated secondary antibody (Pierce, 31462) with shaking for 1 hour at room temperature. The wells were then washed four times with PBS before the addition of chemiluminescence reagent (NEN Renaissance, NEL105). The plate was then shaken briefly, covered with a transparent plate seal and transferred to a TopCount NXT for chemiluminescent counting. Counts per second, following a one second counting time, were recorded for each reaction.
The enzyme activity for each compound is then calculated using the following equation: […]

T1 sequence (Q13315 whole entry): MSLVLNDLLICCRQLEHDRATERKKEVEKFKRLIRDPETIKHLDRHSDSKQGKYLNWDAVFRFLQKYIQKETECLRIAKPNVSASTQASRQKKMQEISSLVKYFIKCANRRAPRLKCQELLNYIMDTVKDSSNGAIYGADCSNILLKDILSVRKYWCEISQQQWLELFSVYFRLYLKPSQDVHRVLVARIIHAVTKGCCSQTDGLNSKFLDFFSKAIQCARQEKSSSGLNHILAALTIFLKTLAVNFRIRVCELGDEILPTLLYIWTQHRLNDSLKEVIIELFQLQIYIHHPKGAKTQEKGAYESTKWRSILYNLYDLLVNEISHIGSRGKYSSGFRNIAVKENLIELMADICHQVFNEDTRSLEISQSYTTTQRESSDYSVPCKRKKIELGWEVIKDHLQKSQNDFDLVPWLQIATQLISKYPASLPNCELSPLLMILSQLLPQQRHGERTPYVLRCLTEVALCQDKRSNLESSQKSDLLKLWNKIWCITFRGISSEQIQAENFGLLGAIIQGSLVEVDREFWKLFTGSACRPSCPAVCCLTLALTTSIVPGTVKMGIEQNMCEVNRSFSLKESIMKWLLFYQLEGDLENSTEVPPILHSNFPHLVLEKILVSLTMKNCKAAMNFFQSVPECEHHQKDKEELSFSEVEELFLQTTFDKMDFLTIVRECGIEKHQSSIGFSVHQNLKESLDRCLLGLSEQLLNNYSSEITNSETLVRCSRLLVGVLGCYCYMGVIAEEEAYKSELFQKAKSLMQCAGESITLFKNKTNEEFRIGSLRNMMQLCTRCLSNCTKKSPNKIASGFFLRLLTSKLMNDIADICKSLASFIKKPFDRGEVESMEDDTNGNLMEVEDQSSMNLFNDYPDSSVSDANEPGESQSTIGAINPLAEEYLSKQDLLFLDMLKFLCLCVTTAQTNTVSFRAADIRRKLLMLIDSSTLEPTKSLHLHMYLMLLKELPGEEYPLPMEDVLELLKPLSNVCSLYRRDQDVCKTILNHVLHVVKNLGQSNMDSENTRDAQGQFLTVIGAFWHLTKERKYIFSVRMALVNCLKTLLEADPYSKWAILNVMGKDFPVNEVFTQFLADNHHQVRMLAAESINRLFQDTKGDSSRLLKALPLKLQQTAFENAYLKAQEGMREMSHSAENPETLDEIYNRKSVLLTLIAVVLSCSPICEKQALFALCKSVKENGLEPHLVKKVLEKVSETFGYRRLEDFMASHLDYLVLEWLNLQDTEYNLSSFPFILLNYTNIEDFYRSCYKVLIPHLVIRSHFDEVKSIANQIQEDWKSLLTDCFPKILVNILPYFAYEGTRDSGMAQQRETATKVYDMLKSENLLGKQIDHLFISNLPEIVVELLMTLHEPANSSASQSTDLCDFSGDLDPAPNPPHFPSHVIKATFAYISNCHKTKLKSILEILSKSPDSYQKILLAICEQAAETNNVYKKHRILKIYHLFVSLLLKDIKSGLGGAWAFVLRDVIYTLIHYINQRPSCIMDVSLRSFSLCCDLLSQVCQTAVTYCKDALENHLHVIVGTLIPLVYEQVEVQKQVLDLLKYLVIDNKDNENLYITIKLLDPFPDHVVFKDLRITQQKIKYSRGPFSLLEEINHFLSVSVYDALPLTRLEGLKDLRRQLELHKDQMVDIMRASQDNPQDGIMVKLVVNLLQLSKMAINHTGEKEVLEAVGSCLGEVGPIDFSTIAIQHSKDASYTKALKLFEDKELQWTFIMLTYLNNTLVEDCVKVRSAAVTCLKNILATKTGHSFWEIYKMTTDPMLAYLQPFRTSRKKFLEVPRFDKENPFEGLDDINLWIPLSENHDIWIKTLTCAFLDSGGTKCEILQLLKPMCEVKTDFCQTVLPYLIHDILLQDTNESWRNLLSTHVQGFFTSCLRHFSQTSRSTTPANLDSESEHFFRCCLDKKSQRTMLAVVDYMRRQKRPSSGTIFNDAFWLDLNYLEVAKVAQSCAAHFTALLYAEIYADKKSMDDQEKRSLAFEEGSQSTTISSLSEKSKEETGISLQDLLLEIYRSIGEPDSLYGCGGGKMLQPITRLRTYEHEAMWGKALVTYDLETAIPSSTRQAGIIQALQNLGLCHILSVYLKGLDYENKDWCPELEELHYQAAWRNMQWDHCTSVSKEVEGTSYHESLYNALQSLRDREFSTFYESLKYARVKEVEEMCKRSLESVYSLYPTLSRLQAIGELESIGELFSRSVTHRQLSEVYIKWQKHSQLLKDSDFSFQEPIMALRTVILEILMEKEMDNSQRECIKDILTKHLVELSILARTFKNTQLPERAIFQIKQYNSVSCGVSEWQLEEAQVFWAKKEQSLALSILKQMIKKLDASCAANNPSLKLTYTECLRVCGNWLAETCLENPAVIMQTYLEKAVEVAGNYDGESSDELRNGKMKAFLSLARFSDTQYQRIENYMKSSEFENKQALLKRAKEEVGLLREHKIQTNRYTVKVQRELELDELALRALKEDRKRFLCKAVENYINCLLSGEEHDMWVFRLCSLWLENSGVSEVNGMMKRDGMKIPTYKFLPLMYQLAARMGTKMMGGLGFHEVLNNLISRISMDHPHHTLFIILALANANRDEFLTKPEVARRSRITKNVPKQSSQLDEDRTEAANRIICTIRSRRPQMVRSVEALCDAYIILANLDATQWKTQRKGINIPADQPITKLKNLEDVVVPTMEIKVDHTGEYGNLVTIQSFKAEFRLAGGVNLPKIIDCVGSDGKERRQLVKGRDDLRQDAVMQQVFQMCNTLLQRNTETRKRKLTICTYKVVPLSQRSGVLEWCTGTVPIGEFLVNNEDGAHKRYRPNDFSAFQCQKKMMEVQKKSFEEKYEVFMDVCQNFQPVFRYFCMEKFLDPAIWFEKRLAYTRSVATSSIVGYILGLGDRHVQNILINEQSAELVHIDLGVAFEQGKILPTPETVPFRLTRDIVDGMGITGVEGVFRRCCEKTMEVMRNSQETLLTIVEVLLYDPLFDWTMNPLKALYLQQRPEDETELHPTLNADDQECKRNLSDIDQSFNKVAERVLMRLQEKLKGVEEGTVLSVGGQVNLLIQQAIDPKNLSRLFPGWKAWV

pIC50, > 6.70:
O=C(CCN1CCCCC1)Nc1ccc2c(c1)Cc1cccc(-c3cc(=O)cc(N4CCOCC4)o3)c1S2 [Compound 69]
O=C(CCN1CCNCC1)Nc1ccc2c(c1)Cc1cccc(-c3cc(=O)cc(N4CCOCC4)o3)c1S2 [Compound 70]
CN1CCN(CCC(=O)Nc2ccc3c(c2)Cc2cccc(-c4cc(=O)cc(N5CCOCC5)o4)c2S3)CC1 [Compound 71]
O=C(CCN(CCO)CCO)Nc1ccc2c(c1)Cc1cccc(-c3cc(=O)cc(N4CCOCC4)o3)c1S2 [Compound 72]
COCCN(CCOC)CCC(=O)Nc1ccc2c(c1)Cc1cccc(-c3cc(=O)cc(N4CCOCC4)o3)c1S2 [Compound 73]
O=C(CCNCCO)Nc1ccc2c(c1)Cc1cccc(-c3cc(=O)cc(N4CCOCC4)o3)c1S2 [Compound 74]
NCCNCCC(=O)Nc1ccc2c(c1)Cc1cccc(-c3cc(=O)cc(N4CCOCC4)o3)c1S2 [Compound 75]
O=C(CCN1CCCC1)Nc1ccc2c(c1)Cc1cccc(-c3cc(=O)cc(N4CCOCC4)o3)c1S2 [Compound 76]
CN1CCCN(CCC(=O)Nc2ccc3c(c2)Cc2cccc(-c4cc(=O)cc(N5CCOCC5)o4)c2S3)CC1 [Compound 77]
O=C(CCN1CCCNCC1)Nc1ccc2c(c1)Cc1cccc(-c3cc(=O)cc(N4CCOCC4)o3)c1S2 [Compound 78]
O=C(CCN1CCCCCC1)Nc1ccc2c(c1)Cc1cccc(-c3cc(=O)cc(N4CCOCC4)o3)c1S2 [Compound 79]
O=C(CCNCCCN1CCOCC1)Nc1ccc2c(c1)Cc1cccc(-c3cc(=O)cc(N4CCOCC4)o3)c1S2 [Compound 80]
COc1ccc(CNCCC(=O)Nc2ccc3c(c2)Cc2cccc(-c4cc(=O)cc(N5CCOCC5)o4)c2S3)cc1 [Compound 81]
O=C(CCSc1ncn[nH]1)Nc1ccc2c(c1)Cc1cccc(-c3cc(=O)cc(N4CCOCC4)o3)c1S2 [Compound 82]
CCN(CC)CCC(=O)Nc1ccc2c(c1)Cc1cccc(-c3cc(=O)cc(N4CCOCC4)o3)c1S2 [Compound 83]
NCCC(=O)Nc1ccc2c(c1)Cc1cccc(-c3cc(=O)cc(N4CCOCC4)o3)c1S2 [Compound 84]
O=C(CCNCC1CCCO1)Nc1ccc2c(c1)Cc1cccc(-c3cc(=O)cc(N4CCOCC4)o3)c1S2 (stereo not drawn) [Compound 86]
O=c1cc(-c2ccc(O)c3c2Cc2ccccc2S3)oc(N2CCOCC2)c1 [Compound 87, 2-(4-Hydroxy-9H-thioxanthen-1yl)-6-morpholin-4-yl-pyran-4-one]
O=c1cc(-c2ccc(OCCNCCO)c3c2Cc2ccccc2S3)oc(N2CCOCC2)c1 [Compound 93]
O=c1cc(-c2ccc(OCCSc3ncn[nH]3)c3c2Cc2ccccc2S3)oc(N2CCOCC2)c1 [Compound 102]
Nc1ccc(-c2cc(=O)cc(N3CCOCC3)o2)c2c1Cc1ccccc1S2 [Compound 106, 2-(1-Amino-9H-thioxanthen-4-yl)-6-morpholin-4-yl-pyran-4-one]
O=C(Nc1ccc(-c2cc(=O)cc(N3CCOCC3)o2)c2c1Cc1ccccc1S2)c1ccco1 [Compound 107]
CC(=O)Oc1ccccc1C(=O)Nc1ccc(-c2cc(=O)cc(N3CCOCC3)o2)c2c1Cc1ccccc1S2 [Compound 109]
O=C(Nc1ccc(-c2cc(=O)cc(N3CCOCC3)o2)c2c1Cc1ccccc1S2)c1ccc(-c2ccccn2)s1 [Compound 110]
Cc1nnsc1C(=O)Nc1ccc(-c2cc(=O)cc(N3CCOCC3)o2)c2c1Cc1ccccc1S2 [Compound 111]
O=C(Nc1ccc(-c2cc(=O)cc(N3CCOCC3)o2)c2c1Cc1ccccc1S2)c1ccc2nsnc2c1 [Compound 112]
N#Cc1ccc(C(=O)Nc2ccc(-c3cc(=O)cc(N4CCOCC4)o3)c3c2Cc2ccccc2S3)cc1 [Compound 113]
O=C(Nc1ccc(-c2cc(=O)cc(N3CCOCC3)o2)c2c1Cc1ccccc1S2)c1ccc2c(c1)OCO2 [Compound 115]
COC(=O)C(=O)Nc1ccc(-c2cc(=O)cc(N3CCOCC3)o2)c2c1Cc1ccccc1S2 [Compound 116]
N#Cc1cccc(NC(=O)Nc2ccc(-c3cc(=O)cc(N4CCOCC4)o3)c3c2Cc2ccccc2S3)c1 [Compound 117]
O=C(Nc1ccc(-c2cc(=O)cc(N3CCOCC3)o2)c2c1Cc1ccccc1S2)c1cccnc1 [Compound 119]
CSc1ncccc1C(=O)Nc1ccc(-c2cc(=O)cc(N3CCOCC3)o2)c2c1Cc1ccccc1S2 [Compound 122]
CC(=O)Oc1cccc(C(=O)Nc2ccc(-c3cc(=O)cc(N4CCOCC4)o3)c3c2Cc2ccccc2S3)c1C [Compound 123]
COCC(=O)CC(=O)Nc1ccc(-c2cc(=O)cc(N3CCOCC3)o2)c2c1Cc1ccccc1S2 [Compound 124]
O=C(Nc1ccc(-c2cc(=O)cc(N3CCOCC3)o2)c2c1Cc1ccccc1S2)c1ccno1 [Compound 126]
CC(C)(C)OC(=O)Nc1ccc(-c2cc(=O)cc(N3CCOCC3)o2)c2c1Cc1ccccc1S2 [Compound 127]
O=C(Nc1ccc(-c2cc(=O)cc(N3CCOCC3)o2)c2c1Cc1ccccc1S2)c1ccc[nH]1 [Compound 128]
Cc1ccoc1C(=O)Nc1ccc(-c2cc(=O)cc(N3CCOCC3)o2)c2c1Cc1ccccc1S2 [Compound 129]
O=c1cc(-c2ccc(NS(=O)(=O)Cc3ccccc3)c3c2Sc2ccccc2C3)oc(N2CCOCC2)c1 [Compound 130]
O=c1cc(-c2cccc3c2Sc2ccccc2CC3)oc(N2CCOCC2)c1 [Compound 133, 2-(10,11-Dihydro-dibenzo[b,f]thiepin-4-yl)-6-morpholin-4-yl-pyran-4-one]
CC(C)(C)OC(=O)N1c2ccccc2Sc2c(-c3cc(=O)cc(N4CCOCC4)o3)cccc21 [Compound 134, 4-(6-Morpholin-4-yl-4-oxo-4H-pyran-2-yl)-phenothiazine-10-carboxylic acid tert-butyl ester]
O=c1cc(-c2cccc3c2Sc2ccccc2N3)oc(N2CCOCC2)c1 [Compound 135, 2-Morpholin-4-yl-6-(10H-phenothiazin-4-yl)-pyran-4-one]
COC(=O)c1ccc2c(c1)Sc1cccc(-c3cc(=O)cc(N4CCOCC4)o3)c1S2 [Compound 137, 6-(6-Morpholin-4-yl-4-oxo-4H-pyran-2-yl)-thianthrene-2-carboxylic acid methyl ester]
O=C(O)c1ccc2c(c1)Sc1cccc(-c3cc(=O)cc(N4CCOCC4)o3)c1S2 [Compound 138, 6-(6-Morpholin-4-yl-4-oxo-4H-pyran-2-yl)-thianthrene-2-carboxylate sodium salt]
CNC(=O)c1ccc2c(c1)Sc1cccc(-c3cc(=O)cc(N4CCOCC4)o3)c1S2 [Compound 139]
CN(C)C(=O)c1ccc2c(c1)Sc1cccc(-c3cc(=O)cc(N4CCOCC4)o3)c1S2 [Compound 140]
CCNC(=O)c1ccc2c(c1)Sc1cccc(-c3cc(=O)cc(N4CCOCC4)o3)c1S2 [Compound 142]
CCCCNC(=O)c1ccc2c(c1)Sc1cccc(-c3cc(=O)cc(N4CCOCC4)o3)c1S2 [Compound 143]
CCCNC(=O)c1ccc2c(c1)Sc1cccc(-c3cc(=O)cc(N4CCOCC4)o3)c1S2 [Compound 144]
CC(C)CNC(=O)c1ccc2c(c1)Sc1cccc(-c3cc(=O)cc(N4CCOCC4)o3)c1S2 [Compound 145]
CC(C)NC(=O)c1ccc2c(c1)Sc1cccc(-c3cc(=O)cc(N4CCOCC4)o3)c1S2 [Compound 146]
